Columns and labels:
Assay in all cases: relative viability (nuclei count vs DMSO), 5 days (fraction); higher = more cells survive
COR-L23 = test system: COR-L23
Summary of the method: (§1)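 Values are medians from duplicate plates. Each reflects relative viability, defined as the nuclei count of treated wells over that of vehicle wells. Lung cancer cell lines in 1536-well plates were pin-tool dosed one day after seeding with one drug alone or with a fixed anchor-drug dose plus five library-drug doses (not always all listed) in √10 steps, then fixed, stained and imaged at 4× after 5 days.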

EKVX = test system: EKVX
Summary of the method: as §1

EMC-BAC-2 = test system: EMC-BAC-2
Summary of the method: as §1

H3255 = test system: H3255
Summary of the method: as §1

HARA = test system: HARA
Summary of the method: as §1

HCC-15 = test system: HCC-15
Summary of the method: as §1

HCC-827 = test system: HCC-827
Summary of the method: as §1

LC-2-ad = test system: LC-2-ad
Summary of the method: as §1

LCLC-97TM1 = test system: LCLC-97TM1
Summary of the method: as §1

NCI-H1355 = test system: NCI-H1355
Summary of the method: as §1

NCI-H1755 = test system: NCI-H1755
Summary of the method: as §1

NCI-H1792 = test system: NCI-H1792
Summary of the method: as §1

NCI-H1915 = test system: NCI-H1915
Summary of the method: as §1

NCI-H2126 = test system: NCI-H2126
Summary of the method: as §1

NCI-H23 = test system: NCI-H23
Summary of the method: as §1

NCI-H2405 = test system: NCI-H2405
Summary of the method: as §1

NCI-H3122 = test system: NCI-H3122
Summary of the method: as §1

NCI-H520 = test system: NCI-H520
Summary of the method: as §1

NCI-H522 = test system: NCI-H522
Summary of the method: as §1

NCI-H661 = test system: NCI-H661
Summary of the method: as §1

NCI-H838 = test system: NCI-H838
Summary of the method: as §1

RERF-LC-KJ = test system: RERF-LC-KJ
Summary of the method: as §1

SW 1573 = test system: SW 1573
Summary of the method: as §1

SW 900 = test system: SW 900
Summary of the method: as §1

UMC-11 = test system: UMC-11
Summary of the method: as §1

## Nc1cccc2c1CN(C1CCC(=O)NC1=O)C2=O (stereo not given) [Lenalidomide] + CCNC(=O)c1noc(-c2cc(C(C)C)c(O)cc2O)c1-c1ccc(CN2CCOCC2)cc1 [Luminespib] (partner 0.01 µM)
COR-L23; first compound 0.253 µM
  relative viability: 0.683
COR-L23; first compound 0.8 µM
  relative viability: 0.766
COR-L23; first compound 2.53 µM
  relative viability: 0.735
COR-L23; first compound 8 µM
  relative viability: 0.758
EKVX; first compound 0.253 µM
  relative viability: 0.807
EKVX; first compound 0.8 µM
  relative viability: 0.84
EKVX; first compound 2.53 µM
  relative viability: 0.955
EKVX; first compound 8 µM
  relative viability: 0.801
EMC-BAC-2; first compound 0.253 µM
  relative viability: 1.22
EMC-BAC-2; first compound 0.8 µM
  relative viability: 1.1
EMC-BAC-2; first compound 2.53 µM
  relative viability: 1.23
EMC-BAC-2; first compound 8 µM
  relative viability: 1.11
H3255; first compound 0.253 µM
  relative viability: 0.732
H3255; first compound 0.8 µM
  relative viability: 0.753
H3255; first compound 2.53 µM
  relative viability: 0.915
H3255; first compound 8 µM
  relative viability: 0.876
HARA; first compound 0.253 µM
  relative viability: 0.679
HARA; first compound 2.53 µM
  relative viability: 0.614
HARA; first compound 8 µM
  relative viability: 1.03
HCC-15; first compound 0.253 µM
  relative viability: 0.485
HCC-15; first compound 0.8 µM
  relative viability: 0.303
HCC-15; first compound 2.53 µM
  relative viability: 0.359
HCC-15; first compound 8 µM
  relative viability: 0.363
HCC-827; first compound 0.253 µM
  relative viability: 0.661
HCC-827; first compound 0.8 µM
  relative viability: 0.803
HCC-827; first compound 2.53 µM
  relative viability: 0.838
HCC-827; first compound 8 µM
  relative viability: 0.59
LC-2-ad; first compound 0.253 µM
  relative viability: 0.912
LC-2-ad; first compound 2.53 µM
  relative viability: 1.03
LC-2-ad; first compound 8 µM
  relative viability: 1.18
LCLC-97TM1; first compound 0.253 µM
  relative viability: 0.763
LCLC-97TM1; first compound 0.8 µM
  relative viability: 0.707
LCLC-97TM1; first compound 2.53 µM
  relative viability: 0.848
LCLC-97TM1; first compound 8 µM
  relative viability: 0.761
NCI-H1355; first compound 0.253 µM
  relative viability: 0.651
NCI-H1355; first compound 2.53 µM
  relative viability: 0.812
NCI-H1355; first compound 8 µM
  relative viability: 0.558
NCI-H1755; first compound 0.253 µM
  relative viability: 0.422
NCI-H1755; first compound 0.8 µM
  relative viability: 0.42
NCI-H1755; first compound 2.53 µM
  relative viability: 0.596
NCI-H1755; first compound 8 µM
  relative viability: 0.655
NCI-H1792; first compound 0.253 µM
  relative viability: 0.357
NCI-H1792; first compound 2.53 µM
  relative viability: 0.449
NCI-H1792; first compound 8 µM
  relative viability: 0.495
NCI-H1915; first compound 0.253 µM
  relative viability: 0.818
NCI-H1915; first compound 0.8 µM
  relative viability: 0.845
NCI-H1915; first compound 2.53 µM
  relative viability: 0.802
NCI-H1915; first compound 8 µM
  relative viability: 0.915
NCI-H2126; first compound 0.253 µM
  relative viability: 0.915
NCI-H2126; first compound 0.8 µM
  relative viability: 0.935
NCI-H2126; first compound 2.53 µM
  relative viability: 0.996
NCI-H2126; first compound 8 µM
  relative viability: 0.871
NCI-H23; first compound 0.253 µM
  relative viability: 0.218
NCI-H23; first compound 0.8 µM
  relative viability: 0.173
NCI-H23; first compound 2.53 µM
  relative viability: 0.196
NCI-H23; first compound 8 µM
  relative viability: 0.228
NCI-H2405; first compound 0.253 µM
  relative viability: 0.665
NCI-H2405; first compound 0.8 µM
  relative viability: 0.76
NCI-H2405; first compound 2.53 µM
  relative viability: 0.757
NCI-H2405; first compound 8 µM
  relative viability: 0.644
NCI-H3122; first compound 0.253 µM
  relative viability: 0.0887
NCI-H3122; first compound 0.8 µM
  relative viability: 0.0863
NCI-H3122; first compound 2.53 µM
  relative viability: 0.0693
NCI-H3122; first compound 8 µM
  relative viability: 0.102
NCI-H520; first compound 0.253 µM
  relative viability: 0.214
NCI-H520; first compound 0.8 µM
  relative viability: 0.222
NCI-H520; first compound 2.53 µM
  relative viability: 0.218
NCI-H520; first compound 8 µM
  relative viability: 0.267
NCI-H522; first compound 0.253 µM
  relative viability: 1.32
NCI-H522; first compound 0.8 µM
  relative viability: 1.79
NCI-H522; first compound 2.53 µM
  relative viability: 1.28
NCI-H522; first compound 8 µM
  relative viability: 1.17
NCI-H661; first compound 0.253 µM
  relative viability: 0.835
NCI-H661; first compound 0.8 µM
  relative viability: 0.864
NCI-H661; first compound 2.53 µM
  relative viability: 0.847
NCI-H661; first compound 8 µM
  relative viability: 0.9
NCI-H838; first compound 0.253 µM
  relative viability: 0.338
NCI-H838; first compound 0.8 µM
  relative viability: 0.308
NCI-H838; first compound 2.53 µM
  relative viability: 0.269
NCI-H838; first compound 8 µM
  relative viability: 0.4
RERF-LC-KJ; first compound 0.253 µM
  relative viability: 1.28
RERF-LC-KJ; first compound 0.8 µM
  relative viability: 1.29
RERF-LC-KJ; first compound 2.53 µM
  relative viability: 1.12
RERF-LC-KJ; first compound 8 µM
  relative viability: 1.32
SW 1573; first compound 0.253 µM
  relative viability: 0.538
SW 1573; first compound 0.8 µM
  relative viability: 0.198
SW 1573; first compound 2.53 µM
  relative viability: 0.162
SW 1573; first compound 8 µM
  relative viability: 0.366
SW 900; first compound 0.253 µM
  relative viability: 0.195
SW 900; first compound 2.53 µM
  relative viability: 0.189
SW 900; first compound 8 µM
  relative viability: 0.183
UMC-11; first compound 0.253 µM
  relative viability: 1.02
UMC-11; first compound 0.8 µM
  relative viability: 1.03
UMC-11; first compound 2.53 µM
  relative viability: 1.04
UMC-11; first compound 8 µM
  relative viability: 0.953
